Measurements published in patent publication US9833433B1, “Compositions, methods of use, and methods of treatment” (priority 2013, dated 2017).

Assays:
[1] = tested on: hippocampal LTP at CA3-CA1 and perforant path synapses; assay: Hippocampal LTP (fEPSP recordings in slices, theta-burst stimulation); format: in vivo, mice; details: 10 mg/kg once daily for 7 days; LTP 24 hr after last injection; CA3-CA1 and perforant path
Method: Hippocampal LTP both at CA3-CA1 and perforant path synapses were recorded in acutely hippocampal slices and induced by a theta-burst stimulation (TBS) as described previously (Hoffman et al., 2007).
Hippocampal slices were prepared from mice as described previously (Chen et al., 2002; Chen et al., 2012; Fan et al., 2010). Briefly, after decapitation, brains were rapidly removed and placed in cold oxygenated (95% O2, 5% CO2) artificial cerebrospinal fluid (ACSF) containing: 125.0 NaCl, 2.5 KCl, 1.0 MgCl2, 25.0 NaHCO3, 1.25 NaH2PO4, 2.0 CaCl2, 25.0 glucose, 3 pyruvic acid, and 1 ascorbic acid. Slices were cut at a thickness of 350-400 μm and transferred to a holding chamber in an incubator containing ACSF at 36° C. for 0.5 to 1 hour, and maintained in an incubator containing oxygenated ACSF at room temperature (˜22-24° C.) for >1.5 h before recordings. Slices were then transferred to a recording chamber where they were continuously perfused with 95% O2, 5% CO2-saturated standard ACSF at ˜32-34° C. Individual pyramidal and dentate granule neurons were viewed with an upright microscope (Olympus BX51WI) fitted with a 60× water-immersion objective and differential interference contrast (DIC) optics.
Field EPSP (fEPSP) recordings both at CA3-CA1 and perforant path synapses in response to stimuli at a frequency of 0.05 Hz were made using an Axoclamp-2B patch-clamp amplifier (Molecular Devices, CA) in bridge mode. Recording pipettes were pulled from borosilicate glass with a micropipette puller (Sutter Instrument), filled with artificial ACSF (2-4 MΩ). […]

[2] = tested on: dendritic spines of CA1 pyramidal neurons; assay: Two-photon imaging of dendritic spines in CA1 pyramidal neurons; format: in vivo, mice; details: repeated Δ^9-THC exposure; Thy1-GFP mice
Method: Morphology of dendritic spines in hippocampal CA1 pyramidal neurons was determined in GFP-expressing transgenic mice using a two-photon laser scanning microscope as described previously (Chen et al., 2012). Shape, size, and density of spines were measured from the three-dimensional reconstructions using NeuronStudio Version 0.9.92.
Morphology of dendritic spines in hippocampal CA1 pyramidal neurons was determined in GFP-expressing transgenic mice treated with vehicle, Δ^9-THC or NS398+Δ^9-THC using a two-photon laser scanning microscope (Chameleon hands-free ultrafast Ti: sapphire laser with an Olympus scan head) with Olympus FLUOVIEW 300 software (Chen et al., 2012). Shape (thin, mushroom, or stubby), size, density, and volume of spines were measured from the three-dimensional reconstructions (Z stacks: 1μ step for the whole cell and 0.1μ step for a segment of dendrites) using AutoQuant X2 or 3D deconvolution plugin of Image J (http://bigwww.epfl.ch/algorithms/deconvolutionlab) and NeuronStudio (for 3D reconstruction of imaged dendritic spines, Version 0.9.92; http://research.mssm.edu/cnic/tools-ns.html, CNIC, Mount Sinai School of Medicine). […] The following parameters were used in analyzing and quantifying spines using NeuronStudio: Voxel size was set as 0.029*0.029*0.3 μm. […]

CCCCCc1cc(O)c2c(c1)OC(C)(C)[C@@H]1CCC(C)=C[C@@H]21 [Δ^9-THC, Δ^9-tetrahydrocannabinol]
hippocampal LTP after repeated Δ^9-THC exposure [1]: decreased hippocampal LTP | density of dendritic spines [2]: significantly reduced density of dendritic spines of CA1 pyramidal neurons
